Columns and labels:
[1] = tested on: PD-L1 on RKO colon cancer cell membranes; assay: PD-L1 on cell membrane by immunofluorescence; type: cell-based; conditions: 20 μM CBD, different time
Procedure: • (1) Different types of tumor cells (RKO, HCT116 and HT29 colon cancer cells, and A549, H1975 and H460 lung cancer cells) in the logarithmic growth phase were respectively inoculated on a 6-well plate at an inoculum density of 2.5×10^5 cells/well with 2 mL/well and then placed in a cell incubator overnight incubation. The culture mixture was removed, CBD at different concentrations (0 μM, 5 μM, 10 μM, and 20 μM) was added for treatment for 24 h, the supernatant was removed, and the cells were washed with PBS 2 times, digested with pancreatin, centrifuged at 300×g and 4° C. for 5 min, and collected. The cells were washed with precooled PBS 2 times, centrifuged at 300×g and 4° C. for 5 min, and collected. The cells were washed 2 times with precooled PBS, 100 μL of PBS was added to resuspend the cells, an anti-PD-L1-Alexa Fluor 647 antibody was added, the cells were incubated at room temperature for 30 min and centrifuged at 300×g and 4° C. for 5 min, 300 μL of PBS was added to resuspend the cells in a flow tube, and an Alexa Fluor 647 signal was detected from the sample using a flow cytometer (excitation/emission wavelength of 647 nm/666 nm). • (2) The colorectal cancer cells (RKO) in the logarithmic growth phase were inoculated into a 6-well plate at a density of 2.5×10^5 cells/well, with a 2 mL volume of the suspension in each well. […]

[2] = tested on: MC38 colorectal cancer cells; assay: MC38 subcutaneous tumor model in C57BL/6 mice, Embodiment 2; type: in vivo; conditions: for Tumor volume: CBD 100 mg/kg, PAR 10 mg/kg, vitamin E 50 mg/kg, thymosin 2 mg/kg
Procedure: • 1. MC38 colorectal cancer cells were inoculated into 6-week-old female C57BL/6 mice (1×10^6 cells/mouse) to establish a subcutaneous tumor model. After the tumor volume reached 50 mm^3, the mice were grouped and administered according to the following pharmaceutical combinations: (1) control group (no administration), (2) anti-PD-1 ([…]/time) group, (3) anti-CTLA4 ([…]/time) group, (4) CBD (100 mg/kg) group, (5) CBD (100 mg/kg)+anti-CTLA4 ([…]/time) group, (6) PAR (10 mg/kg) group, (7) PAR (10 mg/kg)+anti-CTLA4 ([…]) group, (8) CBD (100 mg/kg)+PAR (10 mg/kg) group, (9) vitamin E(a-tocopherol) (50 mg/kg)+thymosin (2 mg/kg) group, (10) CBD (100 mg/kg)+vitamin E(α-tocopherol) (50 mg/kg)+thymosin (2 mg/kg) group, (11) PAR (10 mg/kg)+vitamin E(α-tocopherol) (50 mg/kg)+thymosin (2 mg/kg), (12) PAR (10 mg/kg)+CBD (100 mg/kg)+vitamin E(α-tocopherol) (50 mg/kg)+thymosin (2 mg/kg) group, (13) CBD (100 mg/kg)+vitamin E(α-tocopherol) (50 mg/kg)+thymosin (2 mg/kg)+anti-CTLA4 ([…]/time) group, (14) PAR (10 mg/kg)+vitamin E(α-tocopherol) (50 mg/kg)+thymosin (2 mg/kg)+anti-CTLA4 ([…]) group, and (15) CBD (100 mg/kg)+PAR (10 mg/kg)+vitamin E(α-tocopherol) (50 mg/kg)+thymosin (2 mg/kg)+anti-CTLA4 ([…]/time) group. The tumor weight and volume, and body weight of the mice were monitored once every 2 days. The tumor volume was calculated as follows: tumor volume (mm^3)=0.5×(length)x(width)^2. The mice were sacrificed 14 days after drug administration, and the tumors were dissected.
The dissolving mode of the pharmaceutical composition was as follows: the pharmaceutical composition was dissolved in 10% DMSO+corn oil, the mice were gavaged with the pharmaceutical composition at 100 pl/mouse, and the mice in the control group were injected with the same volume of the solvent. • 2. MC38 colorectal cancer cells were inoculated into 6-week-old female nude mice (1×10^6 cells/mouse) to establish a subcutaneous tumor model. After the tumor volume reached 50 mm^3, the mice were grouped and administered according to the following pharmaceutical combinations: (1) control group, (2) CBD (100 mg/kg)+vitamin E(α-tocopherol) (50 mg/kg)+thymosin (2 mg/kg) group, (3) PAR (10 mg/kg)+vitamin E(α-tocopherol) (50 mg/kg)+thymosin (2 mg/kg) group, and (4) PAR (10 mg/kg)+CBD (100 mg/kg)+vitamin E(α-tocopherol) (50 mg/kg)+thymosin (2 mg/kg) group. The tumor weight and volume, and the body weight of the mice were monitored once every 2 days. The tumor volume was calculated as follows: tumor volume (mm^3)=0.5×(length)x(width)^2. The mice were sacrificed 14 days after drug administration, and the tumors were dissected. (II) Experimental Results 1.

C=C(C)[C@@H]1CCC(C)=C[C@H]1c1c(O)cc(CCCCC)cc1O [CBD, cannabidiol]
expression of PD-L1 on cell membranes (immunofluorescence) [1]: time-dependently decreased the expression of PD-L1
Tumor volume ([2]; Day 0): 0 mm^3
Tumor volume ([2]; Day 2): 54.99 mm^3
Tumor volume ([2]; Day 4): 70.96 mm^3
Tumor volume ([2]; Day 6): 87.63 mm^3
Tumor volume ([2]; Day 8): 178.79 mm^3
Tumor volume ([2]; Day 10): 279.84 mm^3
Tumor volume ([2]; Day 12): 399.70 mm^3
Tumor volume ([2]; Day 14): 493.09 mm^3
Tumor volume ([2]; Day 16): 600.09 mm^3
therapeutic / tumor inhibition effect in words ([2]; normal mice, Embodiment 2, comparison between groups): equivalent therapeutic effects
